According to US10905671B2, “Method of using omega 3 fatty acids to treat diseases which involve damage to the nervous system” (priority 2013, dated 2021):

Legend:
[1] = tested on: moderate thyroid eye disease; assay: Patients with moderate thyroid eye disease (Example 5); type: in vivo, human; conditions: 3 patients; 10 mg
Protocol: The invention was used in 3 patients with moderate thyroid eye disease. The patients were controlled with 10 mg of prednisolone or with 7.5 g to 10 g of EPA and DHA and having a AA/EPA ratio between 1 to 1.5.

[2] = tested on: scleritis; assay: Patients with scleritis (Example 3); type: in vivo, human; conditions: two patients; 10 mg

C[C@]12C=CC(=O)C=C1CC[C@@H]1[C@@H]2[C@@H](O)C[C@@]2(C)[C@H]1CC[C@]2(O)C(=O)CO [prednisolone]
control of thyroid eye disease [1]: controlled
control of scleritis [2]: controlled
side effects [2]: had to stop due to the side effects
